# In US7985767B2, “Therapeutic amides” (Allergan, Inc., priority 2006, dated 2011):
# Experiments:
# [1] = target: EP2 (Homo sapiens, UniProt P43116); assay: EP2 binding (Ki)
# Description: (§1) U.S. patent application Ser. No. 11/553,143, filed on Oct. 26, 2006, incorporated by reference herein, describes the methods used to obtain the in vitro data in the table below.
# [2] = target: T1, hDP (Homo sapiens, UniProt Q13258); assay: Other receptors functional EC50, hDP; format: cell-based
# T1 sequence (Q13258 1-359): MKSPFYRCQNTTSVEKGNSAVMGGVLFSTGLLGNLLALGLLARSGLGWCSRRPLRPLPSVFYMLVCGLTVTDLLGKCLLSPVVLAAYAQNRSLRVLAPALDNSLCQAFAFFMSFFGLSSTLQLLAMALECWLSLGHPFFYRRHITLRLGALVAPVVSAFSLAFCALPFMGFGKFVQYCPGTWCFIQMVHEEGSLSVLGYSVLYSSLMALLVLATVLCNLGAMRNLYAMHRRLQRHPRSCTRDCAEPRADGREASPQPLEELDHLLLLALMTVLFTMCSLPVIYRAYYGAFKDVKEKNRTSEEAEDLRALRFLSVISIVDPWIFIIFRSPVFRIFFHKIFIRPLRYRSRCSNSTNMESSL
# Description: as §1
# [3] = target: T2, hTP (Homo sapiens, UniProt P21731); assay: Other receptors functional EC50, hTP; format: cell-based
# T2 sequence (P21731 1-343): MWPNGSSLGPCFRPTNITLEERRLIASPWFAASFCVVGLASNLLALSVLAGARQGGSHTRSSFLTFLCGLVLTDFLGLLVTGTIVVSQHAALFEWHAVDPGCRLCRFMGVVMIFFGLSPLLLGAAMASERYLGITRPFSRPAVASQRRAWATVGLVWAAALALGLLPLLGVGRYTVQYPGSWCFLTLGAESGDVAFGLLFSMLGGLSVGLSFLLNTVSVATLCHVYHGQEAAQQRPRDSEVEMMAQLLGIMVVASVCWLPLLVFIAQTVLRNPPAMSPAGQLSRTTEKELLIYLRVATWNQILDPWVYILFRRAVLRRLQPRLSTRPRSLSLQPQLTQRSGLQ
# Description: as §1
# EP2, sequence (P43116 whole entry): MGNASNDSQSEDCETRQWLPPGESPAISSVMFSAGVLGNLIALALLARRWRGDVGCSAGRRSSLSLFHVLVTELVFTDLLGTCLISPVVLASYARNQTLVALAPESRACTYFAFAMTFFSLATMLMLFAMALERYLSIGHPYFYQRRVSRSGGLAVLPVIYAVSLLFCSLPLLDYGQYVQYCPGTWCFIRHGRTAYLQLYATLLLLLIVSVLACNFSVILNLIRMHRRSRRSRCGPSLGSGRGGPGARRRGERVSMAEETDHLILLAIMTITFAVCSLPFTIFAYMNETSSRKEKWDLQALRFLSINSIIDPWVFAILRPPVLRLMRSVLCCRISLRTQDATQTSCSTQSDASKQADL
Ki [1],EC50 [2],EC50 [3],Compound
> 10 µM,4.76 µM,–,CCCCCC(O)c1ccc(N(CCCc2ccc(C(=O)O)s2)C(C)=O)cc1 (stereo not drawn) [5-(-3-(N-(4-(1-hydroxyhexyl)phenyl)acetamido)propyl)thiophene-2-carboxylic acid]
–,–,8.53 µM,CCCCCC(O)c1ccc(N(CC#CCCCC(=O)O)C(C)=O)cc1 (stereo not drawn) [7-(N-(4-(1-hydroxyhexyl)phenyl)acetamido)hept-5-ynoic acid]
